Drawing on patent US6710048B2, “Pyrazine derivatives as modulators of tyrosine kinases” (Ortho-McNeil Pharmaceutical, Inc., priority 2000, dated 2004), this text covers IC50 for 10 molecules.

For orientation: IC50 means the concentration that gives 50% inhibition.

For experiment [1], the target named is T1, PKC-β2 (Homo sapiens, UniProt P05771).
T1 construct: purchased BIOMOL SE-143; host or cells: insect cells
The experiment can be described thus: PKC-β2 kinase selectivity assay. Type of experiment: biochemical. The conditions noted are these: Table 4 kinase selectivity; read-out: IC50, Assay 7 PKC-β2. The protocol: (§1) Assays to test compound inhibition of other kinases were preformed using methods that measure the amount of phosphorylation of a biotinylated peptide substrate. Biotinylated peptide substrates were selected from the literature as appropriate for the enzyme being evaluated. […] Assay conditions vary slightly for each protein kinase, for example, insulin receptor kinase requires 10 mM MnCl2 for activity and Calmodulin-dependent protein kinase requires calmodulin and 2 mM CaCl2. The reaction mixture was dispensed into the wells of a streptavidin coated Flashplate and 1 μl drug stock in 100% DMSO was added to a 100 μl reaction volume resulting in a final concentration of 1% DMSO in the reaction. Enzyme was diluted in 50 mM Tris-HCl pH=8.0, 0.1% BSA and added to each well. The reaction was incubated for one hour at 30° C. in the presence of compound. After one hour the reaction mix was aspirated from the plate and the plate was washed with PBS containing 100 mM EDTA. The plate was read on a scintillation counter to determine ^33P-γ-ATP incorporated into the immobilized peptide. Test compounds were assayed in duplicate at 8 concentrations [100 tM, 10 μM, 1 μM, 100 nM, 10 nM, 1 nM, 100 μM, 10 μM]. A maximum and minimum signal for the assay was determined on each plate. The IC50 was calculated from the dose response curve of the percent inhibition of the maximum signal in the assay according to the formula [max signal−background/test compound signal−background (100)=% inhibition] by graphing the percent inhibition against the log concentration of test compound. Known inhibitor compounds appropriate for the kinase being assayed were also included on each plate.
(§2) VEGF-R (vascular endothelial growth factor receptor-2) is a fusion protein containing a polyhistidine tag at the N-terminus followed by amino acids 786-1343 of the rat VEGF-R2 kinase domain (GenBank Accession #U93306). CDK1 (cyclin dependent kinase 1) is isolated from insect cells expressing both the human CDK1 catalytic subunit and its positive regulatory subunit cyclin B (New England Biolabs, Beverly, Mass., Cat. #6020). CDK4 (cyclin dependent kinase 4) contains amino acids 769 to 921 of the mouse […] protein found in the GST-retinoblastoma protein construct (Santa Cruz Biotechnology, Santa Cruz, Calif.; Cat. #SC-4112). Insulin Receptor Kinase consists of residues 941-1313 of the cytoplasmic domain of the beta-subunit of the human insulin receptor (BIOMOL, Plymouth Meeting, Pa., Cat. #SE-195). Protein Kinase A is the catalytic subunit of cAMP dependent protein kinase-A purified from bovine heart (Upstate Biotech, Lake Placid, N.Y., Cat#14-114). PKC (protein kinase-C) is the gamma or beta isoform of the human protein produced in insect cells (BIOMOL, Plymouth Meeting, Pa., Cat. #SE-143). Casein Kinase 1 is a truncation at amino acid 318 of the C-terminal portion of the rat CK1 delta isoform produced in E.coli (New England Biolabs, Beverly, Mass., Cat. #6030). Casein Kinase 2 includes the alpha and beta subunits of the human CK2 protein produced in E.coli (New England Biolabs, Beverly, Mass., Cat. #6010). Calmodulin Kinase (calmodulin-dependent protein kinase 2) is a truncated version of the alpha subunit of the rat protein produced in insect cells (New England Biolabs, Beverly, Mass., Cat. #6060). Glycogen Synthase Kinase-3 is the beta isoform of the rabbit enzyme produced in E. coli (New England Biolabs, Beverly, Mass., Cat. #6040). MAP Kinase is the rat ERK-2 isoform containing a polyhistidine tag at the N-terminus produced in E. coli. and activated by phosphorylation with MEK1 prior to purification (BIOMOL, Plymouth Meeting, Pa., Cat. #SE-137). EGFR (epidermal growth factor receptor) is purified from human A431 cell membranes (Sigma, St. Louis, Mo., Cat.# E3641). PDGF-R (platelet derived growth factor receptor) is a fusion protein containing a polyhistidine tag at the N-terminus followed by nucleotides 1874-3507 of the human PDGF-R beta subunit kinase domain (Accession #M21616). […]

The target in experiment [2] is T2, Protein Kinase A (Bos taurus, UniProt P00517).
T2 construct: purified from bovine heart; purchased Upstate Biotech 14-114; host or cells: bovine heart
The experiment is described as follows: Protein Kinase A selectivity assay. Type of experiment: biochemical, bovine. The conditions noted are these: Table 4 kinase selectivity; read-out: IC50, Assay 5 Protein Kinase A. The protocol:
as §1, §2

Experiment [3] concerns the target T3, Casein Kinase 1 (Rattus norvegicus, UniProt Q06486).
T3 construct: a truncation at amino acid 318 of the C-terminal portion of the rat CK1 delta isoform produced in E.coli; purchased New England Biolabs 6030; host or cells: E. coli
T3 sequence (Q06486 1-317 limits assumed): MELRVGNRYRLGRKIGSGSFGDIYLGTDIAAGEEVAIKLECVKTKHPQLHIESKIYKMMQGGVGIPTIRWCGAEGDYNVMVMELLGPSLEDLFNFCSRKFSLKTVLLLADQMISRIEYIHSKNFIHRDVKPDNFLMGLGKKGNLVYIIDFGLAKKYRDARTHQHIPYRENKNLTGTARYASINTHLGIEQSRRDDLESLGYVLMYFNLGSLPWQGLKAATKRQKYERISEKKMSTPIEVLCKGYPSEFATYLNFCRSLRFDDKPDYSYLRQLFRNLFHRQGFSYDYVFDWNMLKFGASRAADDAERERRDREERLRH
The experiment is described as follows: Casein Kinase 1 selectivity assay. As to conditions: Table 4 kinase selectivity; read-out: IC50, Assay 8 Casein Kinase 1. It counts as biochemical. The protocol: as §1, §2

Molecules are shown by their SMILES.

T1 sequence (P05771 1-673 isoform P05771-2): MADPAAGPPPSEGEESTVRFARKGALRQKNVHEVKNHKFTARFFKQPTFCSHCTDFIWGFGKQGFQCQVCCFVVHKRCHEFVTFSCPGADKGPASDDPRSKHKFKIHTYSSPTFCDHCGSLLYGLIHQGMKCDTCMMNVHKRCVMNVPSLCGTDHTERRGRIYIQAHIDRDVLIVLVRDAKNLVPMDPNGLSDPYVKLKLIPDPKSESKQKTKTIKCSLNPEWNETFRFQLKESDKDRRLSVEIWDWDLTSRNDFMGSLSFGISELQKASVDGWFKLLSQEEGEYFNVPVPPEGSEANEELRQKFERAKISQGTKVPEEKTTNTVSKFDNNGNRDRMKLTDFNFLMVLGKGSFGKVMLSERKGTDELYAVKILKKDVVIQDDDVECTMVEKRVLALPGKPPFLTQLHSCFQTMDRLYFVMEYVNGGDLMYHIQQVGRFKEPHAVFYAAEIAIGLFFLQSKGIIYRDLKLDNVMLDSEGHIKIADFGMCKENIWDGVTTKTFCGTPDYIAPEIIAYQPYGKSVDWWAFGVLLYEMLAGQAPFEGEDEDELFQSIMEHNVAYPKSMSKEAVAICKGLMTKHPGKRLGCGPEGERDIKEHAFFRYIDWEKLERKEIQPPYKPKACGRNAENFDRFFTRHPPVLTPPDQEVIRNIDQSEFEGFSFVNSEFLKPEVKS

Consider `OCCCNc1cncc(-c2cncc(Nc3cccc(Cl)c3)n2)c1` [Cmd 4], for which the IC50 in experiment [1], in experiment [2] and in experiment [3] was above 100 µM each time.
For the molecule `OCCCCNc1cncc(-c2cncc(Nc3cccc(Cl)c3)n2)c1` [Cmd 32], the IC50 in experiment [1] and in experiment [2] was above 100 µM throughout.
Take `CN(C)CCNc1cncc(-c2cncc(Nc3cccc(Cl)c3)n2)c1` [Cmd 33, N′-[5-[6-[(3-chlorophenyl)amino]pyrazinyl]-3-pyridinyl]-N^2,N^2-dimethyl-1,2-ethanediamine]: the IC50 in experiment [1], in experiment [2] and in experiment [3] was above 100 µM each time.
With `CN(C)CCCNc1cncc(-c2cncc(Nc3cccc(Cl)c3)n2)c1` [Cmd 35], the IC50 in experiment [1], in experiment [2] and in experiment [3] was above 100 µM in each case.
With `O=C(NCCCO)c1cncc(-c2cncc(Nc3cccc(Cl)c3)n2)c1` [Cmd 39], the half-inhibitory concentration (IC50) in experiment [1], in experiment [2] and in experiment [3] was above 100 µM throughout.
Take `Clc1cccc(Nc2cncc(-c3cncc(NCCCc4ccncc4)c3)n2)c1` [Cmd 71]: the IC50 in experiment [2] and in experiment [3] was above 100 µM in each case.
On to `Clc1cccc(Nc2cncc(-c3cncc(NCCCc4cccnc4)c3)n2)c1` [Cmd 72], for which the IC50 in experiment [2] and in experiment [3] was above 100 µM in each case.
`Clc1cccc(Nc2cncc(-c3cncc(NCCCN4CCCCC4)c3)n2)c1` [Cmd 73]: the results for the IC50 in experiment [1], in experiment [2] and in experiment [3] were 1.75 µM, above 100 µM and 5.03 µM, respectively.
`Clc1cccc(Nc2cncc(-c3cncc(NCCCn4cccn4)c3)n2)c1` [Cmd 75]: the IC50 is above 100 µM in experiment [2] and 5.6 µM in experiment [3].
In the same order, the values of `Clc1cccc(Nc2cncc(-c3cncc(NCCCn4cncn4)c3)n2)c1` [Cmd 76] are above 100 µM and 6.5 µM.
